# Results reported in patent US20230339889A1, “DERIVATIVES OF 2-OXO-N-(4-(PYRIMIDIN-4-YLOXY/THIO)PHENYL)-1,2-DIHYDROPYRIDINE-3-CARBOXAMIDE FOR USE AS PROTEIN KINASE INHIBITORS FOR THERAPY” (AUCENTRA THERAPEUTICS PTY LTD, priority 2020, published 2023).
# Assays:
# AXL = target: T1, AXL (Homo sapiens, UniProt P30530); assay: Filter-binding radiometric kinase activity assay (KinaseProfiler, Eurofins); assay type: biochemical; conditions: 1 µM compound; read-out: % Residual enzymatic activity at 1 µM AXL
# T1 construct: purchased Eurofins Discovery (Kinase Profiler service)
# T1 sequence (P30530 26-894): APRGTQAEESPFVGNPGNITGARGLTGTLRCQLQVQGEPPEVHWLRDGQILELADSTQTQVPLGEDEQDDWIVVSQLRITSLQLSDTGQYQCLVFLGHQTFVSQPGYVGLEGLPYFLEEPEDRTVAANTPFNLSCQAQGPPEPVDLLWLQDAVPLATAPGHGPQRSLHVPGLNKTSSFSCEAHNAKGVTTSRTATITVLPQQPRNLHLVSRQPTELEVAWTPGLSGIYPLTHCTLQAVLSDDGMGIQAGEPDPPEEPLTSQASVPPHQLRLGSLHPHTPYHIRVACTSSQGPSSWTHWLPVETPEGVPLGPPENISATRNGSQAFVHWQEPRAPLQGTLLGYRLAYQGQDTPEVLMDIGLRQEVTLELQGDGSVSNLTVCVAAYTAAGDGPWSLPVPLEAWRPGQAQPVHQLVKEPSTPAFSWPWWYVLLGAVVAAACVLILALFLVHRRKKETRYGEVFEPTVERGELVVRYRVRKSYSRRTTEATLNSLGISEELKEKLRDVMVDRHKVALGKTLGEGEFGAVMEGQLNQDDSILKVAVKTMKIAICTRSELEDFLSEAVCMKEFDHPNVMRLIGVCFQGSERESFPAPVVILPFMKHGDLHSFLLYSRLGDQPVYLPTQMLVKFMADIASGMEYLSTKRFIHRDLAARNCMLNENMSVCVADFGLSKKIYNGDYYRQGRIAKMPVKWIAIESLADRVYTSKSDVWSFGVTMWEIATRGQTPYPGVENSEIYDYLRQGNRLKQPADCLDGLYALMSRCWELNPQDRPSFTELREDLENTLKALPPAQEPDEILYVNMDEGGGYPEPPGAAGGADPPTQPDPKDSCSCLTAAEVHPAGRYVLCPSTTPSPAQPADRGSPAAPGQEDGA
# Method: (§1) Filter-binding radiometric kinase activity assay (Kinase Profiler™) from Eurofins Discovery was used to determine the % of inhibition and/or IC50 values. […] The reaction is initiated by the addition of the Mg/ATP mixture. After incubation for 40 minutes at room temperature, the reaction is stopped by the addition of phosphoric acid to a concentration of 0.5%. 10 µL of the reaction is then spotted onto a P30 filter mat and washed four times for 4 minutes in 0.425% phosphoric acid and once in methanol prior to drying and scintillation counting. The IC50 values were derived by fitting a sigmoidal dose-response curve to a plot of assay readout over inhibitor concentration. All fits were computed with the GraphPad Prism Software (San Diego, CA, United States of America). Ki values were derived from IC5o values using Cheng Prusoff equation (Cheng Y et al., Biochem Pharmacol 22(23):3099-3108, 1973).
# MET = target: T2, MET (Homo sapiens, UniProt P08581); assay: as above; assay type: biochemical; conditions: 1 µM compound; read-out: % Residual enzymatic activity at 1 µM MET
# T2 construct: purchased Eurofins Discovery (Kinase Profiler service)
# Method: as §1
# Mer = target: T3, Mer (Homo sapiens, UniProt Q12866); assay: as above; assay type: biochemical; conditions: 1 µM compound; read-out: % Residual enzymatic activity at 1 µM Mer
# T3 construct: purchased Eurofins Discovery (Kinase Profiler service)
# T3 sequence (Q12866 21-999): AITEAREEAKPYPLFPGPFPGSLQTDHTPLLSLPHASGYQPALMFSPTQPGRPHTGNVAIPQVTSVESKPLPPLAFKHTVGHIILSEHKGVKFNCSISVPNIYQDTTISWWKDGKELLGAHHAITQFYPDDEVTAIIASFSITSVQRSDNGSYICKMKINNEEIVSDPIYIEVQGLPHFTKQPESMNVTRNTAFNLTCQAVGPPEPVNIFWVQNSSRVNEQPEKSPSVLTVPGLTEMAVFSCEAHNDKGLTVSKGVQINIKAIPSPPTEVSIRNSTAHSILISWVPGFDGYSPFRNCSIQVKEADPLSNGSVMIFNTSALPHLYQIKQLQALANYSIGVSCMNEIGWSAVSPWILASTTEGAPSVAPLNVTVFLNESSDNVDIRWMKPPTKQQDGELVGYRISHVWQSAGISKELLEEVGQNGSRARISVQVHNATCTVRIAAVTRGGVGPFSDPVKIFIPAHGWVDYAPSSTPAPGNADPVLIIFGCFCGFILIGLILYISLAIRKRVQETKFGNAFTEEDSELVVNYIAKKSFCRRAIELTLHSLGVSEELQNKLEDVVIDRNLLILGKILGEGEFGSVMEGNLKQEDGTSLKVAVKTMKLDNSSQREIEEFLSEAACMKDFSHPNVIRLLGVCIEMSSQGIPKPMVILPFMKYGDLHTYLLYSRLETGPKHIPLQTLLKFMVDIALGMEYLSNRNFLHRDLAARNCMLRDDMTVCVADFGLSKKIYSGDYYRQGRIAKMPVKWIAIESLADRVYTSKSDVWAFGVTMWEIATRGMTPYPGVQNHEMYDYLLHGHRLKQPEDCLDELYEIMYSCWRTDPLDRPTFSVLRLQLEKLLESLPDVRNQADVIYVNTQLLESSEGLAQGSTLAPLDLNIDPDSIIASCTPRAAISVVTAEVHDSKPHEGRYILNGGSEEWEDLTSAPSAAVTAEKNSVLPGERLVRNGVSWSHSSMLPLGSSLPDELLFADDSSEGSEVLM
# Method: as §1
# TYRO3 = target: T4, TYRO3 (Homo sapiens, UniProt Q06418); assay: as above; assay type: biochemical; conditions: 1 µM compound; read-out: % Residual enzymatic activity at 1 µM TYRO3
# T4 construct: purchased Eurofins Discovery (Kinase Profiler service)
# T4 sequence (Q06418 41-890): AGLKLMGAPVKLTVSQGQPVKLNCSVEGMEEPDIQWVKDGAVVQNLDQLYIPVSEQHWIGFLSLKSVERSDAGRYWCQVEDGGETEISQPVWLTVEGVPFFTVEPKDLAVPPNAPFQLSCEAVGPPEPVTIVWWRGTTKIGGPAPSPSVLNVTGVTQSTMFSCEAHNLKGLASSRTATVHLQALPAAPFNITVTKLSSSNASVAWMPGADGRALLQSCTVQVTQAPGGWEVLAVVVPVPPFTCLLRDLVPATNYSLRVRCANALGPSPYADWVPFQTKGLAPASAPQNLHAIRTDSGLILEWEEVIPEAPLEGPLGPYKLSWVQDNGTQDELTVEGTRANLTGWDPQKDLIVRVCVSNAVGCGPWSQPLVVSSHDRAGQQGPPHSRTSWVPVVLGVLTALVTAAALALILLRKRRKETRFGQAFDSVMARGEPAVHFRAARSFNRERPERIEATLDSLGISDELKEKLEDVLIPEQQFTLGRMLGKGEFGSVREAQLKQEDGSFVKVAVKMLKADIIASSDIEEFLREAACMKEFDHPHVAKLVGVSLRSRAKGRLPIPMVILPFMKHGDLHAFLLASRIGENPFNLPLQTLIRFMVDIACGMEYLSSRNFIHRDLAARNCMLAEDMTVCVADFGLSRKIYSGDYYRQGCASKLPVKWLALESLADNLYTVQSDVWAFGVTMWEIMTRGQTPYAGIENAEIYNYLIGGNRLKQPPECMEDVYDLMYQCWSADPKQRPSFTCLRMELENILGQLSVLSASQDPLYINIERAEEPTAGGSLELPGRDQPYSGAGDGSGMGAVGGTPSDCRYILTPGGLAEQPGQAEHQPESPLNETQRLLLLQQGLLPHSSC
# Method: as §1
# CDK2E = CDK2E (Homo sapiens, UniProt P24941); assay: ADP Glo Kinase assay; assay type: biochemical; conditions: 1 µM compound; read-out: % Residual enzymatic activity at 1 µM CDK2E
# Method: (§2) Inhibition of CDKs and FLT3 were determined using ADP Glo Kinase assays, as previously described in International Patent Publication No WO 2017/020065.
# CDK4D1 = CDK4D1 (Homo sapiens, UniProt P11802); assay: ADP Glo Kinase assay; assay type: biochemical; conditions: 1 µM compound; read-out: % Residual enzymatic activity at 1 µM CDK4D1
# Method: as §2
# FLT3-ITD = assay: ADP Glo Kinase assay; assay type: biochemical; conditions: 1 µM compound
# Method: as §2
# MV4-11 = assay: Proliferation assay (MTT, leukaemia cancer cell line); assay type: cell-based; conditions: Homo sapiens; 1 µM compound, MV4-11 cells
# Excerpt: Compounds from Example 1 were subjected to standard resazurin and MTT assays on solid tumour and leukaemia cancer cell lines, respectively, as previously reported (Wang S et al., J Med Chem 47:1662-1675, 2004 and Diab S et al., CheMedChem 9:962-972, 2014).
# T2 sequence (P08581 25-1390): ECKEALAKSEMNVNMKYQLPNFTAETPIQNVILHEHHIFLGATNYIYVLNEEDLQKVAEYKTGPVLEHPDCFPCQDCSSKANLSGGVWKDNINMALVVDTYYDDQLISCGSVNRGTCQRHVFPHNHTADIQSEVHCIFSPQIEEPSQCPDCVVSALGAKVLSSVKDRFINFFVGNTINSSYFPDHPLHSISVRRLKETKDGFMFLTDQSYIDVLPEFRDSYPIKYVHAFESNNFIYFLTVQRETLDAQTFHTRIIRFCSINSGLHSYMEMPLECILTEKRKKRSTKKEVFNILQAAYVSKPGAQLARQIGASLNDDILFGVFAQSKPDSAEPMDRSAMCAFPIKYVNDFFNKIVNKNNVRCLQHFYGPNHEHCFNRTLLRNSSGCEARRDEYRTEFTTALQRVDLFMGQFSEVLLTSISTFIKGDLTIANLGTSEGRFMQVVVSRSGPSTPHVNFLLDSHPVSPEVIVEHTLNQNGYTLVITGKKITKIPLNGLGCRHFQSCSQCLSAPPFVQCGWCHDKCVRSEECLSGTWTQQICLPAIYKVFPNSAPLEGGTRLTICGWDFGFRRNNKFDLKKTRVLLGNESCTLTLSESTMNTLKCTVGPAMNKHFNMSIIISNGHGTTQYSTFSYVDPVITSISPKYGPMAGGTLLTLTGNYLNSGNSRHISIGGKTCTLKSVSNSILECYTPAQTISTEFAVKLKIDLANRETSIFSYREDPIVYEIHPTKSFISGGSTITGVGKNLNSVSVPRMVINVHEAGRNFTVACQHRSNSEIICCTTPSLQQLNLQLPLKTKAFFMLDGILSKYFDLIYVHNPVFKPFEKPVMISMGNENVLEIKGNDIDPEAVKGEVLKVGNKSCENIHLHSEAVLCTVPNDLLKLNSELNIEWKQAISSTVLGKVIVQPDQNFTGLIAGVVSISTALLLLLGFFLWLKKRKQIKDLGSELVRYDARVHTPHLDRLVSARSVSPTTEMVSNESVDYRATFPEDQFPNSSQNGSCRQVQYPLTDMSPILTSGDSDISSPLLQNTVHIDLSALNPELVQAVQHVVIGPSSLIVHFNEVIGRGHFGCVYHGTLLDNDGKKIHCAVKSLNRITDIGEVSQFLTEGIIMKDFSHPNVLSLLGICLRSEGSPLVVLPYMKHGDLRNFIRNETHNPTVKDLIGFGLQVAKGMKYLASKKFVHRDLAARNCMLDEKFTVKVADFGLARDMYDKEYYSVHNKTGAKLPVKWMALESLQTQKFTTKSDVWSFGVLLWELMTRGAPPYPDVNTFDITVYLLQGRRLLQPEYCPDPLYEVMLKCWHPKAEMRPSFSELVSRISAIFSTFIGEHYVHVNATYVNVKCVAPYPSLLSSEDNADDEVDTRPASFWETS
# Sequence of CDK4D1 (P11802 whole entry): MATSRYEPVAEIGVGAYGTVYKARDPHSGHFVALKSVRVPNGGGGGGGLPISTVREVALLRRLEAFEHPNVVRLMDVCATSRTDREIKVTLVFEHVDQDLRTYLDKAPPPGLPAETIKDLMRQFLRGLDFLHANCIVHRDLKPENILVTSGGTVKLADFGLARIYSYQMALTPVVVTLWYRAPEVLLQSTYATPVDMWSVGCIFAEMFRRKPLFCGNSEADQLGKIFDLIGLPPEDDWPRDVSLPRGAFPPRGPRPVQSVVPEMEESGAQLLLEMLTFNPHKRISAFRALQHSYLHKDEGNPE
# Sequence of CDK4D1 (P24385 whole entry partner): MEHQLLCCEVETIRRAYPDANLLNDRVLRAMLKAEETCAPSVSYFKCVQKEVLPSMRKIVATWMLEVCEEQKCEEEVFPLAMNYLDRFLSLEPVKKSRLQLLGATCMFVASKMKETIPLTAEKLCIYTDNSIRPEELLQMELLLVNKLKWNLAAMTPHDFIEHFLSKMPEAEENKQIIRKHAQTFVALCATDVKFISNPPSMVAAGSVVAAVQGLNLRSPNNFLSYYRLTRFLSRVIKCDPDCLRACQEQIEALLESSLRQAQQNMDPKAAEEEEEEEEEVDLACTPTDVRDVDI
remaining activity at 1 µM (AXL),remaining activity at 1 µM (MET),remaining activity at 1 µM (Mer),remaining activity at 1 µM (TYRO3),remaining activity at 1 µM (CDK2E),remaining activity at 1 µM (CDK4D1),% Residual enzymatic activity at 1 µM FLT3-ITD (FLT3-ITD),SMILES,activity at 1 µM (MV4-11)
2%,2%,1%,0%,94%,38%,52%,"CCOc1ccn(-c2ccc(F)cc2)c(=O)c1C(=O)Nc1ccc(Oc2ncnc(N)c2Cl)c(F)c1 [Cmpd 2, N-(4-((6-amino-5-chloropyrimidin-4-yl)oxy)-3-fluorophenyl)-4-ethoxy-1-(4-fluorophenyl)-2-oxo-1,2-dihydropyridine-3-carboxamide]",15%
3%,5%,30%,3%,,,22%,"Nc1ncnc(Oc2cc(F)c(NC(=O)c3cccn(-c4ccc(F)cc4)c3=O)cc2F)c1Cl [Cmpd 21, N-(4-((6-amino-5-chloropyrimidin-4-yl)oxy)-2,5-difluorophenyl)-1-(4-fluorophenyl)-2-oxo-1,2-dihydropyridine-3-carboxamide]",3%
